Test results published in patent publication US7368254B2, “Lipid-based systems for targeting diagnostic agents” (Liplasome Pharma A/S, priority 2000, dated 2008).
“Also recorded” adds a separate entry of the source.

Tests used:
[1] = target: T1, Snake venom PLA2 (Agkistrodon piscivorus piscivorus) (Agkistrodon piscivorus piscivorus, UniProt P51972); test: PLA2-controlled release of calcein across non-hydrolysable D-O-SPC target membrane (carrier liposomes or micelles); format: biochemical; settings: carrier liposomes 25 μM; 25 nM PLA2; 37° C.; FIG. 12a
T1 construct: Purified snake-venom phospholipase A2; from tissue
T1 sequence (P51972 1-123): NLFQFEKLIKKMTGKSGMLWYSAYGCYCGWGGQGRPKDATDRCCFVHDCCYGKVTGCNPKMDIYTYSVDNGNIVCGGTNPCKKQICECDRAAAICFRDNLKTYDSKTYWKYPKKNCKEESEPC
Description: Multilamellar model membrane target liposomes were made in the presence of fluorescent calcein in a self-quenching concentration of 20 mM by hydrating a film of 1,2-O-dioctadecyl-sn-glycero-3-phosphatidylcholines (D-O-SPC) in a HEPES buffer solution at pH=7.5 for one hour at 10° C. above the phase transition temperature (Tm=55° C.). […] The unilamellar liposomes were rapidly cooled to a temperature below the transition temperature, and the calcein-containing liposomes were separated from free calcein using a chromatographic column packed with Sephadex G-50. […] Calcein release from the target liposomes is determined by measuring the fluorescent intensity at 520 nm after excitation at 492 nm.
Unilamellar liposomes were made by extruding the multilamellar liposomes ten times through two stacked 100 nm polycarbonate filters.

[2] = i.v., 50 mg/kg
Description: Groups of mice (n=5/group; weight 18-22 g) were treated i.v. with buffer (PBS), ET-18-OCH3 (50 mg/kg), and liposomes composed of 1-O-DPPC with 5 mol % 1-O-DPPE-PEG2000 (68.7 and 137.5 mg/kg). 30 min after injection, 100 μl blood was collected into heparinised tubes directly from decapitated, CO2-anesthetised mice. The blood was centrifuged at 500×G for 10 min, and plasma was removed and stored at −20° C. until analysed.
25 μl plasma was mixed with 2,5 ml PBS or 2.5 ml 10% triton X-100.

[3] = system: human red blood cells (RBC); test: Hemolysis assay; settings: 37° C., 20 hours, FIG. 6
Description: Briefly, each sample was serially diluted with phosphate buffered saline (PBS), and 0.5 ml of each dilute suspension was mixed with 0.5 ml washed human red blood cells (RBC) [4% in PBS (v/v)]. Sample and standard were placed in a 37° C. incubator and agitated for 20 hours. Tubes were centrifuged at low speed (2000×G) for 10 minutes and 200 μl of the supernatant was quantitated by absorbance at 550 nm. 100 percent hemolysis was defined as the maximum amount of hemolysis obtained from the detergent Triton X-100.
The lipids were hydrated in phosphate buffered saline (PBS). 1-O-octadecyl-2-O-methyl-sn-glycero-3-phosphocholine (ET-18-OCH3) in PBS was included in the assay as a reference.
Briefly, each sample was serially diluted with PBS, and 0.5 ml of each dilute suspension of 1-O-DPPC liposomes were mixed with 0.5 ml washed human red blood cells (RBC) [4% in PBS (v/v)]. For controls, 0.5 ml of the red blood cell suspension was mixed with either 0.5 ml buffer solution (negative hemolysis control) or 0.5 ml water (positive hemolysis control). Samples and standard were placed in a 37° C. incubator and agitated for 20 hours. Tubes were centrifuged at low speed (2000×G) for 10 minutes to form RBCs pellets. 200 μl of the supernatant was quantitated by absorbance at 550 nm using a Perkin-Elmer 320 scanning spectrophotometer. […]

extracellular PLA2 = test: Effect of cholesterol incorporated into liposomes on extracellular PLA2 activity (data not shown); format: biochemical
Excerpt: Short-chain phospholipids, such as didecanoyl phosphatidylcholine (DCPC), activate extracellular PLA2.

[4] = Calcein release across target membrane on adding lyso-phospholipid and fatty acid, in the absence of PLA2; settings: target membranes 25 μM; 39° C.; pH 7.5; FIG. 13
Description: Total release after 20 min of the fluorescent model drug and/or contrast agent calcein across the target membrane as a function of adding increasing amounts of lyso-palmitoyl phospholipid and palmitic acid, separately, and in a 1:1 mixture. The concentration of the target membranes is 25 μM in a HEPES buffer with pH=7.5 at a temperature of 39° C.
The experimental model system consists of bare liposomes, polymer-coated liposome carrier and a model target membrane. The carrier is a 100 nm unilamellar liposome made of dipalmitoyl phosphatidylcholine lipids (DPPC) with 2.5 mol % lipopolymer of the type dipalmitoyl phosphatidylethanolamine (DPPE)-PEG2000. The target membrane is another liposome made of 1,2-O-dioctadecyl-sn-glycero-phosphatidylcholine (D-O-SPC) which is a phospholipid where the acyl linkages of the stearoyl chains are ether bonds. In contrast to DPPC, D-O-SPC is inert towards PLA2-catalysed hydrolysis thereby mimicking the stability of an intact target cell membrane toward degradation by its own enzymes. […] The permeation of calcein across the D-O-SPC target membrane is subsequently monitored by the increase in fluorescence. […]

[5] = target: T2, phospholipase A2 (A. piscivorus piscivorus) (Agkistrodon piscivorus piscivorus, UniProt P51972); settings: 0.150 mM micelles, 150 nM PLA2, 45° C.
T2 sequence (P51972 1-123): T1 sequence (P51972 1-123)
Description: The hydrolysis of micelles composed DSPE-PEG750 was followed by analysis of the amount of stearic acid generated. The catalytic reaction was initiated by adding 8.9 μL of a 42 μM PLA2 (150 nM) stock solution to 2.5 ml a thermostated micelle suspension of DSPE-PEG750 (0.150 mM) equilibrated at 45° C. for 600 seconds prior to addition of PLA2. The characteristic burst behaviour of PLA2 towards the micelles is signalled by a sudden increase in the intrinsic fluorescence from PLA2 at 340 nm after excitation at 285 nm followed by a concomitant decrease in the 90° light scattering from the lipid suspension (Hønger et al., Biochemistry 35, 9003-9006). Samples for HPLC analysis of the amount of stearic acid generated were taken before adding PLA2 and 100 sec after the observed lag-time. […] HPLC analysis was made using a 5 μm diol column, a mobile phase composed of chloroform/methanol/water (730:230:30, v/v) and an evaporative light scattering detector (see example 2).

CCCCCCCCCC(=O)OC[C@H](COP(=O)([O-])OCC[N+](C)(C)C)OC(=O)CCCCCCCCC [DCPC, didecanoyl phosphatidylcholine]
rate of calcein release across target membrane versus bare DPPC carriers [1]: very fast; also recorded: further augmentation of the rate of release

CCCCCCCCCCCCCCCCCCOC[C@H](COP(=O)([O-])OCC[N+](C)(C)C)OC [ET-18-OCH3]
outcome of treated mice (in words) [2]: died within the 30 minutes period
hemolysis at low concentrations [3]: significant degree of hemolysis

CC(C)CCC[C@@H](C)[C@H]1CC[C@H]2[C@@H]3CC=C4C[C@@H](O)CC[C@]4(C)[C@H]3CC[C@]12C [cholesterol]
effect on extracellular PLA2 (extracellular PLA2; large amount (≈20 mol %) incorporated into liposomes): deactivated
effect on extracellular PLA2 (extracellular PLA2; small amount (≈3 mol %)): activates

CCCCCCCCCCCCCCCC(=O)O [fatty acid, palmitic acid]
rate of calcein release across target membrane in the absence of PLA2 [4]: increased rate of calcein release

di-octadecanoyl-sn-glycero-3-phosphoethanolamine-N-[methoxy(polyethylene glycol)-750 [DSPE-PEG750]
percentage hydrolysis of DSPE-PEG750 to lyso-SPE-PEG750 and stearic acid ([5]; 100 sec after lag-time): 100%
observed lag time [5]: 10 s
